Experimental data as given in PubChem BioAssay (NCI).
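48-hour exposure; five concentrations; linearly interpolated endpoints. GI50 = concentration required for 50% inhibition of growth. TGI: concentration producing complete growth inhibition.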

How the values were obtained:
Assay in all cases: inhibition of tumour cell growth, NCI panel, 48 h
[1] = tested on: DU-145 prostate
[2] = tested on: HCT-15 colon
[3] = tested on: HL-60(TB) leukemia
[4] = tested on: HOP-92 NSCLC
[5] = tested on: MDA-MB-231 breast
[6] = tested on: NCI/ADR-RES ovarian
[7] = tested on: SF-295 CNS
[8] = tested on: SNB-75 CNS
[9] = tested on: T-47D breast
[10] = tested on: UACC-257 melanoma

Structure (SMILES)	GI50 [1]	TGI [1]	GI50 [2]	TGI [2]	GI50 [3]	TGI [3]	GI50 [4]	TGI [4]	GI50 [5]	TGI [5]	GI50 [6]	TGI [6]	GI50 [7]	TGI [7]	GI50 [8]	TGI [8]	GI50 [9]	TGI [9]	GI50 [10]	TGI [10]
CN1CCN(CC(=O)N2c3cccc4cccc(c34)N(C(=O)CN3CCN(C)CC3)C2c2cn(-c3ccccc3)nc2-c2cccc([N+](=O)[O-])c2)CC1	3.27 µM	10.4 µM	1.98 µM	4.06 µM	1.89 µM	3.75 µM	1.13 µM	3.18 µM	1.84 µM	3.68 µM	3.68 µM	14.3 µM	1.9 µM	3.73 µM	1.32 µM	2.71 µM	1.97 µM	4.34 µM	1.86 µM	3.69 µM
Nc1nc(-c2ccccc2)cc(-c2ccc(Cl)cc2)c1-c1nc2ccccc2o1	12.8 µM	26 µM	10.4 µM	23.2 µM	4.42 µM	17 µM	1.7 µM	6.83 µM	6 µM	18.9 µM	11.5 µM	43.4 µM	20.5 µM	37.7 µM	12.9 µM	26.3 µM	4.21 µM	27.3 µM	19.5 µM	35.1 µM
N#Cc1nn(-c2cc(=O)[nH]c3ccc(Br)cc23)c(N)c1C#N	> 100 µM	> 100 µM	> 100 µM	> 100 µM	> 100 µM	> 100 µM	> 100 µM	> 100 µM	> 100 µM	> 100 µM	> 100 µM	> 100 µM	> 100 µM	> 100 µM	57.1 µM	> 100 µM	6.46 µM	> 100 µM	> 100 µM	> 100 µM
O=C(NCCCCCCNC(=O)OCc1ccc2c(Cl)cc(Cl)c(O)c2n1)OCc1ccc2c(Cl)cc(Cl)c(O)c2n1	1.03 µM	2.24 µM	0.317 µM	1.02 µM	0.771 µM	4.29 µM	0.515 µM	2.17 µM	1.17 µM	2.49 µM	0.518 µM	6.58 µM	2.66 µM	6.99 µM	0.567 µM	2.08 µM	1.75 µM	5.67 µM	1.3 µM	2.77 µM
CCOC(=O)N1C=CC(=C2C(=C3C=CN(C(=O)OCC)C=C3)C(=C3C=CN(C(=O)OCC)C=C3)C2=C2C=CN(C(=O)OCC)C=C2)C=C1	–	> 100 µM	–	44.1 µM	–	> 100 µM	–	33.9 µM	–	70.5 µM	–	> 100 µM	–	92.3 µM	–	> 100 µM	–	> 100 µM	–	> 100 µM
C=C(C)[C@@H]1CC[C@]2(C(N)=O)CC[C@]3(C)[C@H](CC[C@@H]4[C@@]5(C)C/C(=C/c6cccnc6)[C@H](O)C(C)(C)[C@@H]5CC[C@]43C)[C@@H]12	7.08 µM	> 100 µM	2.6 µM	> 100 µM	2.69 µM	11.2 µM	6.37 µM	> 100 µM	99.5 µM	> 100 µM	3.74 µM	> 100 µM	3.75 µM	> 100 µM	4.29 µM	> 100 µM	3.38 µM	> 100 µM	5.83 µM	> 100 µM
COc1ccc(C(c2cc3c(cc2O)OCO3)N2CCOCC2)cc1OC (stereo not given)	–	24.4 µM	–	15.8 µM	–	79.8 µM	–	32.8 µM	–	15.8 µM	–	20 µM	–	27.2 µM	–	31.8 µM	–	45.8 µM	–	34.1 µM
CC(C)(C)c1cc(-c2nc3c(F)c(F)c(F)c(F)c3[nH]2)cc(C(C)(C)C)c1O	> 100 µM	> 100 µM	> 100 µM	> 100 µM	> 100 µM	> 100 µM	> 100 µM	> 100 µM	> 100 µM	> 100 µM	> 100 µM	> 100 µM	> 100 µM	> 100 µM	> 100 µM	> 100 µM	> 100 µM	> 100 µM	> 100 µM	> 100 µM
